From ChEMBL document CHEMBL3286114, “Dual RXR Agonists and RAR Antagonists Based on the Stilbene Retinoid Scaffold” (ACS Med Chem Lett, 2014)
Active and inactive are the calls of the source. No cut-off for these calls is given here.

Legend:
Format in all cases: cell-based
[1] = molecular target: T1, Retinoic acid receptor beta (Mus musculus) (UniProt P22605); assay: Agonist activity at Gal4-fused mouse RAR-beta transfected in human HeLa cells at 10 uM after 12 hrs by luciferase reporter gene assay
T1 sequence (whole entry): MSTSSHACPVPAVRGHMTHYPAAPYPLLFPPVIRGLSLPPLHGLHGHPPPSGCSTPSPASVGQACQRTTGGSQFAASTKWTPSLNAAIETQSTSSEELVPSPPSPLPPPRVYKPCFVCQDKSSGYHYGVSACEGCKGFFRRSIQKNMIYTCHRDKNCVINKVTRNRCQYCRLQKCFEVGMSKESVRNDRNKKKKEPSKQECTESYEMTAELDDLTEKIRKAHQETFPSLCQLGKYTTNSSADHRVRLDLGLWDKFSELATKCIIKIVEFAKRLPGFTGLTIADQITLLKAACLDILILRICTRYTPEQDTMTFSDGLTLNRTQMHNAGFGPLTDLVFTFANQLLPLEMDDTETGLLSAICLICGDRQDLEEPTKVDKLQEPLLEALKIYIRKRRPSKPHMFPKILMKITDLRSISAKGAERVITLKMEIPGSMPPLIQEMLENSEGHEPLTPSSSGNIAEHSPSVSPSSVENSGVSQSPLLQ

[2] = molecular target: T2, Retinoic acid receptor gamma (Mus musculus) (UniProt P18911); assay: Agonist activity at Gal4-fused mouse RAR-gamma transfected in human HeLa cells at 10 uM after 12 hrs by luciferase reporter gene assay
T2 sequence (whole entry): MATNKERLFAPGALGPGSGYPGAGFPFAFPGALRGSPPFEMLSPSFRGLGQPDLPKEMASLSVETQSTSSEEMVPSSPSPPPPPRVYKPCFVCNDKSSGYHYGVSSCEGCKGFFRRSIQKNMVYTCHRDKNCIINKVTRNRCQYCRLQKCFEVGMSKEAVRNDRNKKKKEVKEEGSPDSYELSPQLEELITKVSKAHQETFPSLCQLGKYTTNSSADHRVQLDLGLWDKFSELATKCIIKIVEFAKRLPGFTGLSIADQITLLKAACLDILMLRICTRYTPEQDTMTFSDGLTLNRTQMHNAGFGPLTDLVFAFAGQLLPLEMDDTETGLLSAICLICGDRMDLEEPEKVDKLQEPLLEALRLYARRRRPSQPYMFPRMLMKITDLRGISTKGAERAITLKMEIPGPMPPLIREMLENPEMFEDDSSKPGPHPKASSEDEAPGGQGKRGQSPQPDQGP

[3] = molecular target: T3, Retinoic acid receptor alpha (Mus musculus) (UniProt P11416); assay: Agonist activity at Gal4-fused mouse RAR-alpha transfected in human HeLa cells after 12 hrs by luciferase reporter gene assay
T3 sequence (whole entry): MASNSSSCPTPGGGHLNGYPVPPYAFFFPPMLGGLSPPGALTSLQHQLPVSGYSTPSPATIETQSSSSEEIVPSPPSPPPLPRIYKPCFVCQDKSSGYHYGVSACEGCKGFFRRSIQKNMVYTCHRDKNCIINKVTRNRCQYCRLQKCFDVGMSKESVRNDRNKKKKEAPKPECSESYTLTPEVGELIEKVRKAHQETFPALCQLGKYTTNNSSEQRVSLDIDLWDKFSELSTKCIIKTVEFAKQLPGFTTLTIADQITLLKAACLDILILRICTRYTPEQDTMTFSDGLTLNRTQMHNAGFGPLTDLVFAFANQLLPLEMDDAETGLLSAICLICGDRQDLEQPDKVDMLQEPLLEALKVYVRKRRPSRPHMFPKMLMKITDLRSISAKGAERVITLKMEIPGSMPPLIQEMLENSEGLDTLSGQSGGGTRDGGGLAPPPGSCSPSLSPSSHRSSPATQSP

[4] = molecular target: T3, Retinoic acid receptor alpha (Mus musculus); assay: Antagonist activity at Gal4-fused mouse RAR-alpha transfected in human HeLa cells after 12 hrs by luciferase reporter gene assay
[5] = molecular target: T4, Retinoic acid receptor RXR-beta (Homo sapiens) (UniProt P28702); assay: Agonist activity at Gal4-fused human RXR-beta transfected in human HeLa cells at 875 nM after 12 hrs by luciferase reporter gene assay relative to control
T4 sequence (whole entry): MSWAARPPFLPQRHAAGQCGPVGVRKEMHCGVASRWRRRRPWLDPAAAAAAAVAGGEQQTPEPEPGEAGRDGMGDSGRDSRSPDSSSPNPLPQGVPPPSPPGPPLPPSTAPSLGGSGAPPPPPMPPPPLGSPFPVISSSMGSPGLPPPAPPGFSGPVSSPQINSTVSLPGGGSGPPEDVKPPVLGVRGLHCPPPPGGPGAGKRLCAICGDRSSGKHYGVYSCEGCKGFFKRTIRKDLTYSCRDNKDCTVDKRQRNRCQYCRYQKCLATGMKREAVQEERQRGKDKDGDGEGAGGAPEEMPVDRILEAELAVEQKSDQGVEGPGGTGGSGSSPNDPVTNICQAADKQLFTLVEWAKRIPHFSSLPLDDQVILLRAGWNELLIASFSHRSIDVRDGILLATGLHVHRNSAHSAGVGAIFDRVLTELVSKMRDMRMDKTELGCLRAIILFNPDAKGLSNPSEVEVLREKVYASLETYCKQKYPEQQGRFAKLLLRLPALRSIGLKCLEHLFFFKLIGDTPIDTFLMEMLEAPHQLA

[6] = molecular target: T4, Retinoic acid receptor RXR-beta (Homo sapiens); assay: Agonist activity at Gal4-fused human RXR-beta transfected in human HeLa cells at 51 nM after 12 hrs by luciferase reporter gene assay relative to control
[7] = molecular target: T1, Retinoic acid receptor beta (Mus musculus); assay: Antagonist activity at Gal4-fused mouse RAR-beta transfected in human HeLa cells after 12 hrs by luciferase reporter gene assay
[8] = molecular target: T4, Retinoic acid receptor RXR-beta (Homo sapiens); assay: Agonist activity at Gal4-fused human RXR-beta transfected in human HeLa cells at 125 nM after 12 hrs by luciferase reporter gene assay relative to control
[9] = molecular target: T1, Retinoic acid receptor beta (Mus musculus); assay: Agonist activity at Gal4-fused mouse RAR-beta transfected in human HeLa cells at 1 uM after 12 hrs by luciferase reporter gene assay
[10] = molecular target: T2, Retinoic acid receptor gamma (Mus musculus); assay: Antagonist activity at Gal4-fused mouse RAR-gamma transfected in human HeLa cells after 12 hrs by luciferase reporter gene assay
[11] = molecular target: T4, Retinoic acid receptor RXR-beta (Homo sapiens); assay: Agonist activity at Gal4-fused human RXR-beta transfected in human HeLa cells after 12 hrs by luciferase reporter gene assay
[12] = molecular target: T3, Retinoic acid receptor alpha (Mus musculus); assay: Agonist activity at Gal4-fused mouse RAR-alpha transfected in human HeLa cells at 1 uM after 12 hrs by luciferase reporter gene assay
[13] = molecular target: T4, Retinoic acid receptor RXR-beta (Homo sapiens); assay: Agonist activity at Gal4-fused human RXR-beta transfected in human HeLa cells at 541 nM after 12 hrs by luciferase reporter gene assay relative to control
[14] = molecular target: T2, Retinoic acid receptor gamma (Mus musculus); assay: Agonist activity at Gal4-fused mouse RAR-gamma transfected in human HeLa cells at 1 uM after 12 hrs by luciferase reporter gene assay
[15] = molecular target: T1, Retinoic acid receptor beta (Mus musculus); assay: Agonist activity at Gal4-fused mouse RAR-beta transfected in human HeLa cells at >1 uM after 12 hrs by luciferase reporter gene assay

Activity [1] | Activity [2] | Activity [3] | Activity [4] | fold change (FC) [5] | fold change (FC) [6] | Activity [7] | fold change (FC) [8] | Activity [9] | Activity [10] | Activity [11] | Activity [12] | fold change (FC) [13] | Activity [14] | Activity [15] | SMILES
Active | Active | inactive |  |  |  |  |  |  |  |  |  |  |  |  | O=C(O)c1ccc(NC(=O)c2ccc3c(-c4ccccc4)ccc(-c4ccccc4)c3c2)c(Cl)c1
 |  |  | Active | 15 | 15 | Active | 15 | inactive | Active | Active | inactive | 15 | inactive |  | O=C(O)c1ccc(/C=C/c2ccc3c(-c4ccccc4)ccc(-c4ccccc4)c3c2)cc1
 |  |  | Active | 15 | 15 | Active | 15 | inactive | Active | Active | inactive | 15 | inactive |  | O=C(O)c1ccc(/C=C/c2ccc3c(-c4ccccc4)ccc(-c4ccccc4)c3c2)c(Br)c1

Continued, molecule first:

SMILES | Activity [1] | Activity [2] | Activity [3] | Activity [4] | fold change (FC) [5] | fold change (FC) [6] | Activity [7] | fold change (FC) [8] | Activity [9] | Activity [10] | Activity [11] | Activity [12] | fold change (FC) [13] | Activity [14] | Activity [15]
O=C(O)c1ccc(/C=C/c2ccc3c(-c4ccccc4)ccc(-c4ccccc4)c3c2)c(F)c1 |  |  |  | Active | 15 | 15 | Active | 15 | inactive | Active | Active | inactive | 15 | inactive | 
O=C(O)c1ccc(NC(=O)c2ccc3c(-c4ccccc4)ccc(-c4ccccc4)c3c2)cc1 | Active | Active | inactive |  |  |  |  |  |  |  |  |  |  |  | Active
C/C(=C\c1ccc(C(=O)O)cc1)c1ccc2c(c1)C(C)(C)CCC2(C)C |  |  |  |  | 15 | 15 |  | 15 |  |  |  |  | 15 |  | 
O=C(O)c1ccc(NC(=O)c2ccc3c(-c4ccccc4)ccc(-c4ccccc4)c3c2)c(F)c1 | Active | Active | inactive |  |  |  |  |  |  |  |  |  |  |  | 
